Measurements published in the supplement of paper PMC10307832.

Assays:
Assay in all cases: relative viability (nuclei count vs DMSO), 5 days (fraction); higher = more cells survive
Sorafenib + OSI-027 = compound: CNC(=O)c1cc(Oc2ccc(NC(=O)Nc3ccc(Cl)c(C(F)(F)F)c3)cc2)ccn1 [Sorafenib] + COc1cccc2cc(-c3nc([C@H]4CC[C@H](C(=O)O)CC4)n4ncnc(N)c34)[nH]c12 [OSI-027] (partner 0.5 µM)
Procedure, shortened: (§1)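 Cells from lung cancer lines were seeded into 1536-well plates and, one day later, dosed by pin tool. Treatments were either a single drug or a fixed dose of an anchor drug with five library-drug doses (not always all listed) in √10 steps. After 5 days, nuclei were stained in a one-step fixation (final 0.05% Triton X-100, 1% formaldehyde, 1 ug/ml Hoechst) and counted on 4× images, and relative viability is the treated-to-vehicle nuclei ratio, as the median of duplicate plates.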

Sorafenib + Phenformin = compound: CNC(=O)c1cc(Oc2ccc(NC(=O)Nc3ccc(Cl)c(C(F)(F)F)c3)cc2)ccn1 [Sorafenib] + N=C(N)NC(=N)NCCc1ccccc1 [Phenformin] (partner 250 µM)
Procedure, shortened: as §1

Sorafenib + Palbociclib = compound: CNC(=O)c1cc(Oc2ccc(NC(=O)Nc3ccc(Cl)c(C(F)(F)F)c3)cc2)ccn1 [Sorafenib] + CC(=O)c1c(C)c2cnc(Nc3ccc(N4CCNCC4)cn3)nc2n(C2CCCC2)c1=O [Palbociclib] (partner 0.5 µM)
Procedure, shortened: as §1

Sorafenib + Luminespib = compound: CNC(=O)c1cc(Oc2ccc(NC(=O)Nc3ccc(Cl)c(C(F)(F)F)c3)cc2)ccn1 [Sorafenib] + CCNC(=O)c1noc(-c2cc(C(C)C)c(O)cc2O)c1-c1ccc(CN2CCOCC2)cc1 [Luminespib] (partner 0.01 µM)
Procedure, shortened: as §1

Sorafenib + Pictilisib = compound: CNC(=O)c1cc(Oc2ccc(NC(=O)Nc3ccc(Cl)c(C(F)(F)F)c3)cc2)ccn1 [Sorafenib] + CS(=O)(=O)N1CCN(Cc2cc3nc(-c4cccc5[nH]ncc45)nc(N4CCOCC4)c3s2)CC1 [Pictilisib] (partner 1 µM)
Procedure, shortened: as §1

Cell Line	relative viability (Sorafenib + OSI-027; first compound 0.08 µM)	relative viability (Sorafenib + OSI-027; first compound 2.53 µM)	relative viability (Sorafenib + OSI-027; first compound 8 µM)	relative viability (Sorafenib + Phenformin; first compound 0.08 µM)	relative viability (Sorafenib + Phenformin; first compound 2.53 µM)	relative viability (Sorafenib + Phenformin; first compound 8 µM)	relative viability (Sorafenib + Palbociclib; first compound 0.08 µM)	relative viability (Sorafenib + Palbociclib; first compound 0.253 µM)	relative viability (Sorafenib + Palbociclib; first compound 2.53 µM)	relative viability (Sorafenib + Palbociclib; first compound 8 µM)	relative viability (Sorafenib + Luminespib; first compound 0.08 µM)	relative viability (Sorafenib + Luminespib; first compound 2.53 µM)	relative viability (Sorafenib + Luminespib; first compound 8 µM)	relative viability (Sorafenib + Pictilisib; first compound 0.08 µM)	relative viability (Sorafenib + Pictilisib; first compound 0.253 µM)	relative viability (Sorafenib + Pictilisib; first compound 2.53 µM)	relative viability (Sorafenib + Pictilisib; first compound 8 µM)	relative viability (Sorafenib + OSI-027; first compound 0.253 µM)	relative viability (Sorafenib + Phenformin; first compound 0.253 µM)	relative viability (Sorafenib + Luminespib; first compound 0.253 µM)
NCI-H441	0.588	0.423	0.297	0.976	0.745	0.412	0.222	0.245	0.252	0.164	0.326	0.29	0.287	0.524	0.476	0.409	0.445	–	–	–
NCI-H520	0.352	0.246	0.246	0.673	0.574	0.253	0.192	0.208	0.225	0.172	0.21	0.232	0.218	0.337	0.322	0.307	0.188	0.254	0.316	0.216
COR-L 105	0.816	1.05	0.677	0.534	0.561	0.441	0.452	0.365	0.411	0.384	1	1.05	0.623	0.413	0.487	0.476	0.329	0.735	0.458	–
SW 1573	0.79	0.553	0.21	0.446	0.388	0.0803	0.39	0.363	0.417	0.09	0.239	0.166	0.117	0.464	0.465	0.402	0.257	0.517	0.403	0.255
PC-3 [JPC-3]	0.805	0.692	0.617	0.512	0.492	0.453	0.522	0.552	0.576	0.606	0.67	0.717	0.637	0.813	0.659	0.752	0.679	0.722	0.458	0.687
HCC-15	0.631	0.712	0.386	0.501	0.442	0.212	0.77	0.619	0.708	0.48	0.533	0.338	0.185	0.729	0.683	–	0.602	0.558	0.403	0.26
UMC-11	0.46	0.454	0.266	0.316	0.24	0.155	0.284	0.355	0.334	0.188	1.03	1	0.182	0.85	0.78	0.759	0.523	0.386	0.301	1.03
NCI-H1734	0.585	0.584	0.318	0.459	0.411	0.236	0.376	0.329	0.37	0.275	0.235	0.186	0.161	0.465	0.469	0.471	0.248	0.534	0.362	0.131
